Here are results for four compounds from patent EP2589385A1, “TRIPLE COMBINATION FOR THE TREATMENT OF CANCER” (Fundación Centro Nacional de Investigaciones Oncológicas, priority 2011, dated 2013).

Series [1] deals with human primary pancreatic cancer cells (A6L and 185). The series can be described thus: Viability of adherent cells after inhibitor pretreatment. It counts as cell-based. The following applies: pretreatment with inhibitor.
In the next series the test system is A6L and 185 cells. The series can be described thus: Sphere formation assay (CSC self-renewal). The conditions noted are these: for sphere formation / sphere forming capacity: 10, 20, and 40µM, 7 days, vs control. It is filed as cell-based, human. On the procedure:
(§1) Human pancreatic tumours were obtained with written informed consent from all patients. For in vitro studies, tissue fragments were minced, enzymatically digested with collagenase (Stem Cell Technologies, Vancouver, BC) for 90 min at 37°C (Mueller TM et al. Gastroenterology 2009 137(3):1102-13) and after centrifugation for 5 min at 1200 rpm the pellets were resuspended and cultured in RPMI, 10%FBS and 50units/ml pen/strep. Pancreatic cancer spheres were generated by placing the pancreatic cancer cell in suspension (20,000 cells/ml) in serum-free DMEM/F12 media, supplemented with B27 (1:50, Invitrogen), 20ng/ml bFGF and 50units/ml pen/strep. After 7 days of incubation, spheres were typically >75µm big with ~97% CD133high. For serial passaging, 7-day-old spheres were harvested using 40µm cell strainers, dissociated to single cells with trypsin, and then re-grown for 7 days. Cultures were kept no longer than 4 weeks after recovery from frozen stocks.

Series [2] concerns pancreatic cancer cells (185 and A6L). As to the kind of experiment: Invasion assay, modified Boyden chamber with Matrigel. It is filed as cell-based, human. The conditions noted are these: for effects of Nodal and Activin on cell invasiveness: cells pretreated with inhibitor at 20µM. As for the experimental part:
Invasion assays were performed using modified Boyden chambers filled with Matrigel™ (BioCoat®, BD Biosciences, Heidelberg, Germany). […] 500µl of cell suspensions containing 5x10^4 pre-treated or untreated cells were added to the Matrigel™ coated inserts, and 750µl of serum-free medium with or without 300ng/ml recombinant human Nodal was added to the lower chamber. The assay chambers were incubated for 22h at 37°C. Invaded cells were fixed in 4% PFA and stained with DAPI. The ratios of cells in the lower chamber versus total seeded cells (in per cent) were calculated.

The test system of the next series is phosphorylation of Smad2. The series can be described thus: Smad2 phosphorylation assay (western blot). It is filed as cell-based, human. The conditions noted are these: simultaneous treatment with inhibitor and rNodal or rActivin. From the text:
PVDF membranes containing electrophoretically separated proteins from human primary pancreatic cancer cells and spheres were probed with mouse antibodies against Nodal (ab556676; Abcam, Inc.), Smad2 (3103; Cell Signalling Technology, Inc.), GAPDH (ab8245-100; Abcam, Inc.), Smad4 (sc-7966; Santa Cruz Biotechnology, Inc.) and rabbit antibody against pSmad2 (3108; Cell Signalling Technology, Inc.), treated with peroxidase-conjugated goat anti-mouse or anti-rabbit Ig secondary antibody (Sigma), and then visualized by enhanced chemoluminescence (Amersham, Inc.). Human primary pancreatic cancer cells were serum-starved for 3h in RPMI (GIBCO). Following starvation, the cells were incubated for 30 min at 37°C with recombinant human Nodal or Activin proteins (300 ng/ml and 100 ng/ml, respectively; R&D) either alone or in the presence of the SB431542 (10 µM, Sigma). Anti-Smad2 and anti-phospho-Smad2 (Ser465/467) Antibodies (Cell Signalling Technology) were used, following the manufacturer's instructions.
In general terms: A western blot detects proteins with antibodies after separation by electrophoresis.

A further series relates to CD133+ population. The series can be described thus: CD133 content by flow cytometry after in vitro treatment. It is filed as cell-based, human. As for the experimental part:
To identify pancreatic CSC, the following antibodies were used: anti-CD133/1-APC or PE; CD133/2-APC (all Miltenyi, Bergisch-Gladbach, Germany) was used for purity testing after MACSorting; EpCAM-FITC, CD44-PE or appropriate isotype-matched control antibodies (Beckton Dickinson, Heidelberg, Germany). Propidium iodide or 7-AAD was used for exclusion of dead cells (eBiosciences, San Diego, CA). Samples were analysed by flow cytometry using a FACS Canto II (BD) and data were analysed with FlowJo 9.2 software (Ashland, Oregon).
(In flow cytometry, cells or beads pass a laser one at a time.)

The test system of the next series is CD133+ cells. As to the kind of experiment: Cell cycle analysis with BrdU flow kit. It counts as cell-based, human.
Another series relates to L3.6pl cells. The series can be described thus: In vivo treatment of established orthotopic pancreatic cancer cell line xenografts. Further details: species or system female NMRI nu/nu mice. On the procedure:
(§2) Single-cell suspensions were either orthotopically implanted into the pancreas of female NMRI nu/nu mice (Janvier, Le Genest-Saint-Isle, France) or 2mm3 pieces of primary, in vivo expanded pancreatic cancer tissue were subcutaneously implanted, and mice were randomized to the respective treatment groups. Size and weight of the pancreatic tumours were monitored. Gemcitabine was administered twice a week (125 mg/kg i.p.). SB431542 was used at 25 mg/kg and CUR199691 at 100 mg/kg, both by oral gavages twice daily for three weeks.
Mice were analysed with a 3-Tesla MRI system (Magnetom Tim Trio, Siemens, Erlangen, Germany) using a dedicated small animal coil and T2-weighted scanning.

Series [3] concerns primary human pancreatic cancer tissue xenografts. As to the kind of experiment: In vivo treatment of primary human pancreatic cancer tissue xenografts. Further details: species or system female NMRI nu/nu mice. On the procedure:
as §2
On the technique in general: In xenograft studies the graft and the host belong to different species.

For series [4], the system named is cells isolated from harvested tumours. As to the kind of experiment: Sphere formation capacity of cells isolated from treated tumours on day 100. It counts as cell-based, human. The following applies: cells from tumours harvested on day 100 (Fig. 7G, left panel). As for the experimental part:
as §1

For a further series, the system named is CD133+ CSC. The conditions noted are these: treatment with gemcitabine; cited from earlier work.
The test system of series [5] is xenotransplanted human pancreatic cancer. The conditions noted are these: in vivo therapy with gemcitabine; cited from earlier work.

The structures appear in SMILES notation.

Take `Cc1cccc(-c2nn3c(c2-c2ccnc4ccc(C(N)=O)cc24)CCC3)n1` [LY2157299]: the “viability of adherent cells” value in [1] is reported as “did not affect the viability of adherent cells”. The “sphere formation / sphere forming capacity” value in the series with A6L and 185 cells is on record as “did not display any effects on sphere forming capacity”. In addition, in the series on A6L and 185 cells (summary statement of Example 8 (Fig. 4A)), the sphere forming capacity entry is reported as “neither the Alk5 inhibitor LY2157299 nor the TGF-β receptor II neutralizing antibodies resulted in significant changes of sphere forming capacity”. The “enhanced invasiveness of CSC treated with rTGF-β” value in series [2] (Alk5 inhibitor with rTGF-β) is “abrogated the enhanced invasiveness of CSC treated with rTGF-β”.

For `NC(=O)c1ccc(-c2nc(-c3ccc4c(c3)OCO4)c(-c3ccccn3)[nH]2)cc1` [SB431542], the “reversal of rNodal/rActivin-enhanced phosphorylation of Smad2” value in the series with phosphorylation of Smad2 was “almost reversed this enhanced phosphorylation of Smad2”. The “viability of adherent cells” value in series [1] is reported as “did not affect the viability of adherent cells”. Besides, in the series on A6L and 185 cells, the “sphere formation / sphere forming capacity” value was “dose-dependently (10, 20, and 40µM) blocked sphere formation as compared to control”. In addition, the “effects of Nodal and Activin on cell invasiveness” value in series [2] was “significantly attenuated the effects of Nodal and Activin on cell invasiveness”. Moreover, the “cell invasion of sphere-derived cells” value in series [2] (conditioned medium from PSC cells in the lower compartment (Fig. 17B)) is given as “Cell invasion was abrogated”. Moreover, the “time until the CD133+ population replenished” value in the series with CD133+ population (after four days of treatment with SB431542 alone) was no more than 48 h. The “CD133 content / CD133+ population” value in the series on CD133+ population (four days of treatment) is “marked decrease in CD133 content”. The “percentage of CD133+ cells in S phase” value with CD133+ cells is on record as “did not affect the percentage of CD133+ cells in S phase”. The “percentage of apoptotic CD133+ cells” value with CD133+ cells (result in words) is recorded as “nor did it increase the percentage of apoptotic CD133+ cells”.

With `Cc1cccc(-c2[nH]c(C(C)(C)C)nc2-c2ccc3c(c2)OCO3)n1` [SB505124], in series [2], the “effects of Nodal and Activin on cell invasiveness” value was “significantly attenuated the effects of Nodal and Activin on cell invasiveness”.

Consider `Nc1ccn([C@@H]2O[C@H](CO)[C@@H](O)C2(F)F)c(=O)n1` [gemcitabine, 4-amino-l-[3,3-difluoro-4-hydroxy-5-(hydroxymethyl)tetrahydrofuran-2-yl]-1 H-pyrimidin-2-one], for which, in the series on L3.6pl cells (follow-up until day 100 (Fig. 7C)), the “survival / long-term survival” value is listed as “significantly prolonged survival”. The tumour take rate with L3.6pl cells (orthotopic cell line xenografts) amounted to 100%. This compound also displayed a median survival in the series on L3.6pl cells (orthotopic cell line xenografts, treatment started one week after injection, control 32 days) of 54 days. The “histological differentiation of remaining tumours” value in series [3] (day 100) was “poor differentiation”. The “tumour growth after gemcitabine withdrawal” value in [3] (long-term follow-up) is recorded as “reaccelerated in growth”. In addition, the sphere forming capacity entry in series [4] is recorded as “strong sphere forming capacity”. In addition, in the series with CD133+ CSC, the “effect on CD133+ CSC” value is listed as “no detectable effect”. Further, the “CD133+ cells in the residual tumour tissue” value in series [5] is given as “significant enrichment of CD133+ cells in the residual tumour tissue”.
